Laboratory results taken from patent publication US4368200A, “Heterocyclic derivatives of (4-phenyl-piperazine-1-yl-aryloxymethyl-1,3-dioxolan-2-yl)-methyl-1H-imi dazoles and 1H-1,2,4-triazoles” (Janssen Pharmaceutica N.V., priority 1981, dated 1983).

Test system: Candida albicans
Test: Experiment A: activity against vaginal candidosis in rats
Type: in vivo, Female Wistar rats
Settings: po, 336 h, orally once a day for two days starting from the day of infection, active at the 14th day after infection, read-out: Vaginal candidosis in rats: lowest effective dose in mg/kg orally
Experimental: Female Wistar rats of ±100 g body weight are used. They are ovariectomized and hysterectomized and after three weeks of recovery, 100 μg of oestradiol undecylate in sesame oil is given subcutaneously once a week for 3 consecutive weeks. The thus induced pseudo-oestrus is controlled by microscopic examination of vaginal smears. Food and water are left available ad libitum. The rats are infected intravaginally with 8.10^5 cells of Candida albicans, grown on Sabouraud broth for 48 hours at 37° C. and diluted with saline. The data of infection varies from day +25 to day +32 after surgical intervention, depending on the appearance of signs of induced pseudo-oestrus. The drugs under investigation are administered orally once a day for two days starting from the day of infection. For each experiment there are placebo treated controls. The results are assessed by taking vaginal smears with sterile swabs on several days after the infection. The swabs are put into Sabouraud broth in petri-dishes and incubated for 48 hours at 37° C. If no growth of Candida albicans occurs, i.e., when the animals are negative at the end of the experiment, this is due to drug administration because it never happens in placebo-treated controls. The table below gives the lowest oral dose of the drug under investigation which is found active at the 14th day after infection.

`Clc1ccc([C@@]2(Cn3ccnc3)OC[C@H](COc3ccc(N4CCN(c5ccc(-n6ccnc6)cc5)CC4)cc3)O2)c(Cl)c1` (relative stereo) gave a minimal effective dose of 1.25 mg/kg.
`Clc1ccc([C@@]2(Cn3cncn3)OC[C@H](COc3ccc(N4CCN(c5ccc(-n6ccnc6)cc5)CC4)cc3)O2)c(Cl)c1` (relative stereo) showed a minimal effective dose of 1.25 mg/kg.
`CSc1ncn(-c2ccc(N3CCN(c4ccc(OC[C@H]5CO[C@](Cn6ccnc6)(c6ccc(Cl)cc6Cl)O5)cc4)CC3)cc2)n1` (relative stereo) gave a minimal effective dose of 2.5 mg/kg.
With `CCn1nc(C)n(-c2ccc(N3CCN(c4ccc(OC[C@H]5CO[C@](Cn6cncn6)(c6ccc(Cl)cc6Cl)O5)cc4)CC3)cc2)c1=O` (relative stereo) the minimal effective dose was < 0.63 mg/kg.
`Clc1ccc([C@@]2(Cn3ccnc3)OC[C@H](COc3ccc(N4CCN(c5ccc(-n6cncn6)cc5)CC4)cc3)O2)c(Cl)c1` (relative stereo) showed a minimal effective dose of 0.63 mg/kg.
In the case of `CSc1nncn1-c1ccc(N2CCN(c3ccc(OC[C@H]4CO[C@](Cn5cncn5)(c5ccc(Cl)cc5Cl)O4)cc3)CC2)cc1` (relative stereo), the minimal effective dose is reported as 2.5 mg/kg.
For `CSc1nc(C)n(-c2ccc(N3CCN(c4ccc(OC[C@H]5CO[C@](Cn6ccnc6)(c6ccc(Cl)cc6Cl)O5)cc4)CC3)cc2)n1` (relative stereo), the minimal effective dose was 2.5 mg/kg.
For `Clc1ccc([C@@]2(Cn3cncn3)OC[C@H](COc3ccc(N4CCN(c5ccc(-n6cccn6)cc5)CC4)cc3)O2)c(Cl)c1` (relative stereo), the minimal effective dose was 2.5 mg/kg.
In the case of `Cc1nn(C)c(=O)n1-c1ccc(N2CCN(c3ccc(OC[C@H]4CO[C@](Cn5ccnc5)(c5ccc(Cl)cc5Cl)O4)cc3)CC2)cc1` (relative stereo), the minimal effective dose is reported as 0.63 mg/kg.
For `Cn1ncn(-c2ccc(N3CCN(c4ccc(OC[C@H]5CO[C@](Cn6cncn6)(c6ccc(Cl)cc6Cl)O5)cc4)CC3)cc2)c1=O` (relative stereo), the minimal effective dose was ≥ 0.63 mg/kg.
`Cc1ncnn1-c1ccc(N2CCN(c3ccc(OC[C@H]4CO[C@](Cn5cncn5)(c5ccc(Cl)cc5Cl)O4)cc3)CC2)cc1` (relative stereo) was tested, and the minimal effective dose was 0.63 mg/kg.
With `CSc1nnc(C)n1-c1ccc(N2CCN(c3ccc(OC[C@H]4CO[C@](Cn5cncn5)(c5ccc(Cl)cc5Cl)O4)cc3)CC2)cc1` (relative stereo) the minimal effective dose was 2.5 mg/kg.
Compound `CCCn1nc(C)n(-c2ccc(N3CCN(c4ccc(OC[C@H]5CO[C@](Cn6cncn6)(c6ccc(Cl)cc6Cl)O5)cc4)CC3)cc2)c1=O` (relative stereo) has a minimal effective dose of 0.5 mg/kg.
For `CCn1ncn(-c2ccc(N3CCN(c4ccc(OC[C@H]5CO[C@](Cn6cncn6)(c6ccc(Cl)cc6Cl)O5)cc4)CC3)cc2)c1=O` (relative stereo), the minimal effective dose was ≥ 0.16 mg/kg.
`Clc1ccc([C@@]2(Cn3ccnc3)OC[C@H](COc3ccc(N4CCN(c5ccc(-n6cccn6)cc5)CC4)cc3)O2)c(Cl)c1` (relative stereo) gave a minimal effective dose of 2.5 mg/kg.
Work on `CSc1ncn(-c2ccc(N3CCN(c4ccc(OC[C@H]5CO[C@](Cn6cncn6)(c6ccc(Cl)cc6Cl)O5)cc4)CC3)cc2)n1` (relative stereo) yielded a minimal effective dose of 1.25 mg/kg.
Compound `Cn1ncn(-c2ccc(N3CCN(c4ccc(OC[C@H]5CO[C@](Cn6ccnc6)(c6ccc(Cl)cc6Cl)O5)cc4)CC3)cc2)c1=O` (relative stereo) has a minimal effective dose of 1 mg/kg.
In the case of `CSc1nc(C)n(-c2ccc(N3CCN(c4ccc(OC[C@H]5CO[C@](Cn6cncn6)(c6ccc(Cl)cc6Cl)O5)cc4)CC3)cc2)n1` (relative stereo), the minimal effective dose is reported as ≤ 0.63 mg/kg.
With `Cc1nn(C)c(=O)n1-c1ccc(N2CCN(c3ccc(OC[C@H]4CO[C@](Cn5cncn5)(c5ccc(Cl)cc5Cl)O4)cc3)CC2)cc1` (relative stereo) the minimal effective dose was ≤ 0.63 mg/kg.
For `CCn1ncn(-c2ccc(N3CCN(c4ccc(OC[C@H]5CO[C@](Cn6ccnc6)(c6ccc(Cl)cc6Cl)O5)cc4)CC3)cc2)c1=O` (relative stereo), the minimal effective dose was 1.25 mg/kg.
In the case of `Clc1ccc([C@@]2(Cn3cncn3)OC[C@H](COc3ccc(N4CCN(c5ccc(-n6cnnn6)cc5)CC4)cc3)O2)c(Cl)c1` (relative stereo), the minimal effective dose is reported as < 2.5 mg/kg.
Work on `CCCn1nc(C)n(-c2ccc(N3CCN(c4ccc(OC[C@H]5CO[C@](Cn6ccnc6)(c6ccc(Cl)cc6Cl)O5)cc4)CC3)cc2)c1=O` (relative stereo) yielded a minimal effective dose of 0.63 mg/kg.
`CCn1nc(C)n(-c2ccc(N3CCN(c4ccc(OC[C@H]5CO[C@](Cn6ccnc6)(c6ccc(Cl)cc6Cl)O5)cc4)CC3)cc2)c1=O` (relative stereo) was tested, and the minimal effective dose was 1.25 mg/kg.
In the case of `Clc1ccc([C@@]2(Cn3cncn3)OC[C@H](COc3ccc(N4CCN(c5ccc(-n6cncn6)cc5)CC4)cc3)O2)c(Cl)c1` (relative stereo), the minimal effective dose is reported as 0.63 mg/kg.
